Assay type in all cases: functional
In assay [1] the test system is Mus musculus. Briefly: Antimalarial activity was determined by Blood schizonticidal activity in mice (Mus musculus) infected with Plasmodium berghei K173 at 5 (mg/kg x5) subcutaneous dosage; Cured/treated = 0/6 on day 7.
For assay [2], the system named is Mus musculus. Briefly: Antimalarial activity was determined by Blood schizonticidal activity in mice (Mus musculus) infected with Plasmodium berghei K173 at 20 (mg/kg x5) peroral dosage; Cured/treated = 0/6.
Assay [3] deals with Mus musculus. Briefly: Antimalarial activity was determined by blood schizonticidal activity in mice (Mus musculus) infected with Plasmodium berghei K173 at 10 (mg/kgx5) subcutaneous dosage; Cured/treated = 0/6 on day 7.
Assay [4] relates to Mus musculus. Briefly: Antimalarial activity was determined by Blood schizonticidal activity in mice (Mus musculus) infected with Plasmodium berghei K173 at 5 (mg/kg x5) subcutaneous dosage; Cured/treated = 5/5.
For assay [5], the system named is Mus musculus. Briefly: Antimalarial activity was determined by blood schizonticidal activity in mice (Mus musculus) infected with Plasmodium berghei K173 at 2.5 (mg/kgx5) subcutaneous dosage; Cured/treated = 0/4 on day 7.
Assay [6] concerns Mus musculus. Briefly: Antimalarial activity was determined by Blood schizonticidal activity in mice (Mus musculus) infected with Plasmodium berghei K173 at 5 (mg/kg x5) subcutaneous dosage; Cured/treated = 0/5 on day 7.
Assay [7] concerns Mus musculus. Briefly: Antimalarial activity was determined by blood schizonticidal activity in mice (Mus musculus) infected with Plasmodium berghei K173 at 25 (mg/kgx5) peroral dosage; Cured/treated = 0/6.
Assay [8] relates to Mus musculus. Briefly: Antimalarial activity was determined by Blood schizonticidal activity in mice (Mus musculus) infected with Plasmodium berghei K173 at 10 (mg/kgx5) subcutaneous dosage; Cured/treated = 0/5 on day 7.
Assay [9] relates to Mus musculus. Briefly: Antimalarial activity was determined by Blood schizonticidal activity in mice (Mus musculus) infected with Plasmodium berghei K173 at 5 (mg/kg x5) subcutaneous dosage; Cured/treated = 2/6 on day 7.
In assay [10] the test system is Mus musculus. Briefly: Antimalarial activity was determined by Blood schizonticidal activity in mice (Mus musculus) infected with Plasmodium berghei K173 at 5 (mg/kg x5) subcutaneous dosage; Cured/treated = 1/6 on day 7.
The subject of assay [11] is Mus musculus. Briefly: Antimalarial activity was determined by Blood schizonticidal activity in mice (Mus musculus) infected with Plasmodium berghei K173 at 10 (mg/kgx5) subcutaneous dosage; Cured/treated = 0/4 on day 7.
Assay [12] deals with Mus musculus. Briefly: Antimalarial activity was determined by Blood schizonticidal activity in mice (Mus musculus) infected with Plasmodium berghei K173 at 5 (mg/kg x5) subcutaneous dosage; Cured/treated = 5/6 on day 7.
For assay [13], the system named is Mus musculus. Briefly: Antimalarial activity was determined by blood schizonticidal activity in mice (Mus musculus) infected with Plasmodium berghei K173 at 5 (mg/kg x5) subcutaneous dosage; Cured/treated = 6/6.
Assay [14] has as its system Mus musculus. Briefly: Antimalarial activity was determined by Blood schizonticidal activity in mice (Mus musculus) infected with Plasmodium berghei K173 at 25 (mg/kgx5) peroral dosage; Cured/treated = 0/6 on day 7.
Assay [15] relates to Mus musculus. Briefly: Antimalarial activity was determined by Blood schizonticidal activity in mice (Mus musculus) infected with Plasmodium berghei K173 at 2.5 (mg/kgx5) subcutaneous dosage; Cured/treated = 0/6 on day 7.
Assay [16] concerns Mus musculus. Briefly: Antimalarial activity was determined by blood schizonticidal activity in mice (Mus musculus) infected with Plasmodium berghei K173 at 10 (mg/kgx5) peroral dosage; Cured/treated = 34/39 on day 7.
The test system of assay [17] is Mus musculus. Briefly: Antimalarial activity was determined by Blood schizonticidal activity in mice (Mus musculus) infected with Plasmodium berghei NS at 5 (mg/kg x5) subcutaneous dosage; Cured/treated = 22/22.
Assay [18] has as its system Mus musculus. Briefly: Antimalarial activity was determined by Blood schizonticidal activity in mice (Mus musculus) infected with Plasmodium berghei K173 at 25 (mg/kgx5) peroral dosage; Cured/treated = 16/16.
For assay [19], the system named is Mus musculus. Briefly: Antimalarial activity was determined by blood schizonticidal activity in mice (Mus musculus) infected with Plasmodium berghei K173 at 1.25 (mg/kgx5) subcutaneous dosage; Cured/treated = 26/34 on day 7.
Assay [20] concerns Mus musculus. Briefly: Antimalarial activity was determined by Blood schizonticidal activity in mice (Mus musculus) infected with Plasmodium berghei K173 at 15 (mg/kg x5) peroral dosage; Cured/treated = 19/22 on day 7.
For assay [21], the system named is Mus musculus. Briefly: Antimalarial activity was determined by Blood schizonticidal activity in mice (Mus musculus) infected with Plasmodium berghei K173 at 2.5 (mg/kgx5) subcutaneous dosage; Cured/treated = 28/28 on day 7.
Assay [22] relates to Mus musculus. Briefly: Antimalarial activity was determined by Blood schizonticidal activity in mice (Mus musculus) infected with Plasmodium berghei K173 at 1 (mg/kg x5) subcutaneous dosage; Cured/treated = 10/22 on day 7.
Assay [23] concerns Mus musculus. Briefly: Antimalarial activity was determined by blood schizonticidal activity in mice (Mus musculus) infected with Plasmodium berghei NS at 2.5 (mg/kgx5) subcutaneous dosage; Cured/treated = 11/12.
In assay [24] the test system is Mus musculus. Briefly: Antimalarial activity was determined by Blood schizonticidal activity in mice (Mus musculus) infected with Plasmodium berghei NS at 25 (mg/kgx5) peroral dosage; Cured/treated = 6/6.
Assay [25] has as its system Mus musculus. Briefly: Antimalarial activity was determined by Blood schizonticidal activity in mice (Mus musculus) infected with Plasmodium berghei K173 at 10 (mg/kgx5) subcutaneous dosage; Cured/treated = 6/6.
Assay [26] deals with Mus musculus. Briefly: Antimalarial activity was determined by Blood schizonticidal activity in mice (Mus musculus) infected with Plasmodium berghei K173 at 5 (mg/kg x5) subcutaneous dosage; Cured/treated = 6/6 on day 7.

`C[C@@H]1CC[C@@H]2[C@]34OOC(C)(CCC13)O[C@H]4O[C@]2(C)COC(=O)CCCCl` (single isomer, unassigned) showed a Cured/treated in assay [1] of 0.
As to `CCN(CC)CCOC[C@@]1(C)O[C@@H]2O[C@]3(C)CCC4[C@H](C)CC[C@@H]1[C@]42OO3` (some centres not stated), the Cured/treated in [2] and in assay [1] was 0 each time.
Turning to `C[C@@H]1CCC2[C@]34OOC(C)(CCC13)O[C@H]4O[C@]2(C)CO` (single isomer, unassigned), in [3], the Cured/treated was 0.
Molecule `C[C@@H]1CC[C@@H]2[C@]34OOC(C)(CCC13)O[C@H]4O[C@]2(C)COC(=S)N1CCN(c2cccc(C(F)(F)F)c2)CC1` (single isomer, unassigned) registered a Cured/treated in assay [1] of 0.
For the molecule `C[C@@H]1CC[C@@H]2[C@]34OOC(C)(CCC13)O[C@H]4O[C@]2(C)/C=C/c1ccc(C(F)(F)F)cc1` (single isomer, unassigned), the Cured/treated is 5 in [4] and 0 in assay [5].
`C=CCOC(=O)[C@@]1(C)O[C@@H]2OC3(C)CCC4[C@H](C)CC[C@@H]1[C@]42OO3` (single isomer, unassigned) registered a Cured/treated in assay [3] of 0.
Consider `CCOC(=O)/C=C\[C@@]1(C)O[C@@H]2OC3(C)CCC4[C@H](C)CC[C@@H]1[C@]42OO3` (single isomer, unassigned), for which the Cured/treated in [6] came out at 0.
`C[C@@H]1CC[C@@H]2[C@]34OOC(C)(CCC13)O[C@H]4O[C@]2(C)C(=O)OCCCl` (single isomer, unassigned): the Cured/treated in [7] and in assay [1] was 0 each time.
Turning to `C[C@@H]1CC[C@@H]2[C@]34OOC(C)(CCC13)O[C@H]4O[C@]2(C)COC=O` (single isomer, unassigned), the Cured/treated in assay [8] came to 0.
For `C[C@@H]1CC[C@@H]2[C@]34OO[C@@](C)(CCC13)O[C@H]4O[C@]2(C)C(=O)Sc1ccccc1` (some centres not stated), the Cured/treated in [9] was determined as 2.
Regarding `C=CC/N=C(\S)OC[C@@]1(C)O[C@@H]2O[C@]3(C)CCC4[C@H](C)CC[C@@H]1[C@]42OO3` (some centres not stated), the Cured/treated in assay [3] was 0.
Still for that read-out and setting: as for `C[C@@H]1CC[C@@H]2[C@]34OO[C@@](C)(CCC13)O[C@H]4O[C@]2(C)COC(=O)C(=O)O` (some centres not stated), the figure is 0.
Regarding `C[C@@H]1CC[C@@H]2[C@]34OOC(C)(CCC13)O[C@H]4O[C@]2(C)CC(=O)Oc1ccc([N+](=O)[O-])cc1` (single isomer, unassigned), the Cured/treated in [10] worked out at 1.
In turn, `C[C@@H]1CC[C@@H]2[C@]34OOC(C)(CCC13)O[C@H]4O[C@]2(C)C(=O)OCCCCCCCCCl` (single isomer, unassigned) registered a Cured/treated in assay [11] of 0.
For the molecule `C[C@@H]1CC[C@@H]2[C@]34OOC(C)(CCC13)O[C@H]4O[C@]2(C)COC(=O)CCl` (single isomer, unassigned), in assay [1], the Cured/treated is 0.
As for `Cc1ccc(S(=O)(=O)OC[C@@]2(C)O[C@@H]3OC4(C)CCC5[C@H](C)CC[C@@H]2[C@]53OO4)cc1` (single isomer, unassigned), the Cured/treated in assay [12] was determined as 5.
Molecule `CCOC(=O)c1cc(Cl)ccc1/N=C(/S)OC[C@@]1(C)O[C@@H]2O[C@]3(C)CCC4[C@H](C)CC[C@@H]1[C@]42OO3` (some centres not stated) registered a Cured/treated in assay [3] of 0.
In [8], `CCOC(=O)C(=C[C@@]1(C)O[C@@H]2OC3(C)CCC4[C@H](C)CC[C@@H]1[C@]42OO3)C(=O)OCC` (single isomer, unassigned) had a Cured/treated of 0.
For the molecule `C[C@@H]1CC[C@@H]2[C@]34OOC(C)(CCC13)O[C@H]4O[C@]2(C)COS(C)(=O)=O` (single isomer, unassigned), the Cured/treated in [1] is 0.
The molecule `CCOC(=O)[C@@]1(C)O[C@@H]2OC3(C)CCC4[C@H](C)CC[C@@H]1[C@]42OO3` (single isomer, unassigned) came in with a Cured/treated in [11] of 0.
In the case of `C[C@@H]1CCC2[C@]34OOC(C)(CCC13)O[C@H]4O[C@]2(C)C(=O)O` (single isomer, unassigned), the Cured/treated in assay [3] is on record as 0.
For `C[C@@H]1CC[C@@H]2[C@]34OO[C@@](C)(CCC13)O[C@H]4O[C@]2(C)CO/C(S)=N\c1ccc(F)cc1` (some centres not stated), the Cured/treated in assay [13] came to 6; in [14], 0; in [15] it was 0.
In the case of `C[C@@H]1CC[C@@H]2[C@]34OO[C@@](C)(CCC13)O[C@H]4O[C@]2(C)CC(=O)ONc1ccc(Cl)cc1` (some centres not stated), the figures for the Cured/treated in assay [2] and in assay [10] were 0 and 1, respectively.
In assay [3], `C[C@@H]1CC[C@@H]2[C@]34OOC(C)(CCC13)O[C@H]4O[C@]2(C)COS(=O)(=O)c1ccccc1` (single isomer, unassigned) gave a Cured/treated of 0.
In assay [1], `C[C@@H]1CC[C@@H]2[C@]34OOC(C)(CCC13)O[C@H]4O[C@]2(C)C(=O)OCCBr` (single isomer, unassigned) returned a Cured/treated of 0.
In turn, `C[C@@H]1CC[C@@H]2[C@]34OOC(C)(CCC13)O[C@H]4O[C@]2(C)C(=O)OCCCCl` (single isomer, unassigned) registered a Cured/treated in assay [1] of 0.
Take `C[C@@H]1CC[C@@H]2[C@]34OOC(C)(CCC13)O[C@H]4O[C@]2(C)C(=O)N1CCOCC1` (single isomer, unassigned): in assay [3], the Cured/treated turned out to be 0.
Turning to `C[C@@H]1CC[C@@H]2[C@]34OO[C@@](C)(CCC13)O[C@H]4O[C@]2(C)CO/C(S)=N/c1ccc(Cl)cc1` (some centres not stated), the Cured/treated is listed as 34 in [16]; 22 in assay [17]; 16 in assay [18]; 26 in assay [19]; 19 in assay [20]; 28 in assay [21]. For the same molecule, the values for the Cured/treated in assay [22], in assay [23] and in [24] were 10, 11 and 6, respectively.
Turning to `C#CCOC[C@@]1(C)O[C@@H]2OC3(C)CCC4[C@H](C)CC[C@@H]1[C@]42OO3` (single isomer, unassigned), the Cured/treated in assay [1] was 0; in [25], 6.
In assay [3], `C[C@@H]1CC[C@@H]2[C@]34OO[C@@](C)(CCC13)O[C@H]4O[C@]2(C)C(=O)N1CCN(C)CC1` (some centres not stated) had a Cured/treated of 0.
The molecule `C[C@@H]1CC[C@@H]2[C@]34OO[C@@](C)(CCC13)O[C@H]4O[C@]2(C)CO/C(S)=N/c1ccccc1` (some centres not stated) had a Cured/treated in assay [26] of 6.
`C[C@@H]1CC[C@@H]2[C@]34OOC(C)(CCC13)O[C@H]4O[C@]2(C)COC/C=C/c1ccccc1` (single isomer, unassigned): in [1], the Cured/treated was 0.

The values are drawn from ChEMBL document CHEMBL1128380, “Antimalarial activity of novel ring-contracted artemisinin derivatives” (1995).
